# Measurements taken from US20200095192A1, “BIODEGRADABLE DIETHANOLAMINE DERIVATIVE CHELATING AGENT AND PREPARATION PROCESS THEREOF” (PTT Global Chemical Public Company Limited, priority 2017, published 2020).
# Read-outs that look alike come from different tables or passages of the source.
# What was measured:
# [1] = calcium chelation value of crude ligand; format: physicochemical; set-up: unit not given here
# Experimental: (§1) The diethanolamine derivatives and maleic anhydride can be synthesized by the reaction according to equation (I). The diethanolamine precursor, maleic anhydride, and selected catalyst were added into about 15-20 mL of dichloromethane solvent, wherein the amounts of each compounds were shown in table 1. Then, the obtained mixture was refluxed at the temperature of 50° C. until the reaction was completed. The amount of precursors being used was monitored. The solvent was removed from the obtained product. The obtained product was dissolved in 50 mL of distilled water and washed with dichloromethane for at least 3 times (30 mL each). After being washed, the obtained product was dried under vacuum and analyzed for its property using ^1H NMR spectroscopy and liquid chromatography mass spectrometry (LC/MS) technique.
# as §1, with “succinic” for “maleic”, “(II).” for “(I).”, “3.” for “1.”, “in” for “in 50 mL of”, “water (50 mL)” for “water”
# as §1, with “and succinic” for “and maleic”, “equation (III).” for “equation (I).”, “precursor, phthalic” for “precursor, maleic”, “table 5.” for “table 1.”, “in” for “in 50 mL of”, “water (50 mL)” for “water”
# [2] = stability constant by complex titration; format: physicochemical; details: synthesized chelating agent
# Text: The analysis of stability constant between the synthesized chelating agent and metal ions can be performed by complex titration wherein the stability constant of the synthesized chelating agent and metal ions comparing to the previous disclosed degradable chelating agent can be performed according to table 7.
# [3] = aluminium (Al^3+); previous disclosed chelating agent; cited from earlier work
# [4] = tin (Pb^2+); previous disclosed chelating agent; cited from earlier work
# [5] = cadmium (Cd^2+); previous disclosed chelating agent; cited from earlier work
# [6] = copper (Cu2+); previous disclosed chelating agent; cited from earlier work
# [7] = mercury (Hg^2+); previous disclosed chelating agent; cited from earlier work
# [8] = manganese (Mn^2+); previous disclosed chelating agent; cited from earlier work
# [9] = magnesium (Mg^2+); previous disclosed chelating agent; cited from earlier work
# [10] = calcium (Ca^2+); previous disclosed chelating agent; cited from earlier work
# [11] = barium (Ba^2+); previous disclosed chelating agent; cited from earlier work
# [12] = zinc (Zn^2+); previous disclosed chelating agent; cited from earlier work
# [13] = iron (Fe^3+); previous disclosed chelating agent; cited from earlier work
# [14] = iron (Fe^2+); previous disclosed chelating agent; cited from earlier work
# [15] = cobolt (Co^2+); previous disclosed chelating agent; cited from earlier work
# [16] = nickel (Ni^2+); previous disclosed chelating agent; cited from earlier work
# [17] = crude of ligand 1-1 to ligand 1-11 without purification
# [18] = crude of ligand 3-1 to ligand 3-7 without purification
# [19] = crude of ligand 2-1 to ligand 2-9 without purification
compound,measurement,setting,value
O=C(O)/C=C/C(=O)OCCN(CCOC(=O)/C=C/C(=O)O)C(=O)/C=C/C(=O)O [ligand 1-11],calcium chelation value,[1]; [17],60
O=C(O)c1ccccc1C(=O)OCCN(CCOC(=O)c1ccccc1C(=O)O)C(=O)c1ccccc1C(=O)O [ligand 3-4],calcium chelation value,[1]; [18],70
O=C(O)CCC(=O)OCCN(CCOC(=O)CCC(=O)O)C(=O)CCC(=O)O [ligand 2-9],calcium chelation value,[1]; [19],85
O=C(O)CCC(=O)OCCN(CCOC(=O)CCC(=O)O)C(=O)CCC(=O)O [ligand 2],stability constant,[2]; aluminium (Al^3+),11.4
same,stability constant,[2]; barium (Ba^2+),6.2
same,stability constant,[2]; cadmium (Cd^2+),7.2
same,stability constant,[2]; calcium (Ca^2+),10.1
same,stability constant,[2]; cobolt (Co^2+),7.5
same,stability constant,[2]; copper (Cu2+),10.5
same,stability constant,[2]; iron (Fe^2+),12.3
same,stability constant,[2]; iron (Fe^3+),7.5
same,stability constant,[2]; magnesium (Mg^2+),8.1
same,stability constant,[2]; manganese (Mn^2+),9.1
same,stability constant,[2]; mercury (Hg^2+),9.5
same,stability constant,[2]; nickel (Ni^2+),5.4
same,stability constant,[2]; strontium (Sr^2+),5.3
same,stability constant,[2]; tin (Pb^2+),9.9
same,stability constant,[2]; zinc (Zn^2+),7.9
O=C(O)CCC(=O)OCCN(CCOC(=O)CCC(=O)O)C(=O)CCC(=O)O [ligand 2-8],calcium chelation value,[1]; [19],83
O=C(O)/C=C/C(=O)OCCN(CCOC(=O)/C=C/C(=O)O)C(=O)/C=C/C(=O)O [ligand 1-5],calcium chelation value,[1]; [17],3
O=C(O)CCC(=O)OCCN(CCOC(=O)CCC(=O)O)C(=O)CCC(=O)O [ligand 2-6],calcium chelation value,[1]; [19],87
O=C(O)c1ccccc1C(=O)OCCN(CCOC(=O)c1ccccc1C(=O)O)C(=O)c1ccccc1C(=O)O [ligand 3-5],calcium chelation value,[1]; [18],75
O=C(O)c1ccccc1C(=O)OCCN(CCOC(=O)c1ccccc1C(=O)O)C(=O)c1ccccc1C(=O)O [ligand 3-1],calcium chelation value,[1]; [18],25
O=C(O)CC(OCCN(CCOC(CC(=O)O)C(=O)O)[C@@H](CC(=O)O)C(=O)O)C(=O)O (stereo partly shown) [BCA6],stability constant,[3],6.14
same,stability constant,[4],10.82
same,stability constant,[5],11.09
same,stability constant,[6],13.08
same,stability constant,[7],14.85
same,stability constant,[8],9.28
same,stability constant,[9],5.98
same,stability constant,[10],7.71
same,stability constant,[11],6.1
same,stability constant,[12],11.34
same,stability constant,[13],17.3
O=C(O)CCC(=O)OCCN(CCOC(=O)CCC(=O)O)C(=O)CCC(=O)O [ligand 2-4],calcium chelation value,[1]; [19],21
O=C(O)/C=C/C(=O)OCCN(CCOC(=O)/C=C/C(=O)O)C(=O)/C=C/C(=O)O [ligand 1-7],calcium chelation value,[1]; [17],46
O=C(O)/C=C/C(=O)OCCN(CCOC(=O)/C=C/C(=O)O)C(=O)/C=C/C(=O)O [ligand 1-1],calcium chelation value,[1]; [17],4
O=C(O)/C=C/C(=O)OCCN(CCOC(=O)/C=C/C(=O)O)C(=O)/C=C/C(=O)O [ligand 1-2],calcium chelation value,[1]; [17],15
O=C(O)CCC(=O)OCCN(CCOC(=O)CCC(=O)O)C(=O)CCC(=O)O [ligand 2-2],calcium chelation value,[1]; [19],8
"O=C(O)CC(NC(CC(=O)O)C(=O)O)C(=O)O (stereo not shown) [IDS, iminodisuccinic acid]",stability constant,[3],14.1
same,stability constant,[4],11.0
same,stability constant,[5],8.4
same,stability constant,[6],13.1
same,stability constant,[14],8.2
same,stability constant,[7],14.9
same,stability constant,[15],10.5
same,stability constant,[8],7.7
same,stability constant,[16],12.2
same,stability constant,[9],6.1
same,stability constant,[10],5.2
same,stability constant,[11],2.1
same,stability constant,[12],10.8
same,stability constant,[13],15.2
O=C(O)/C=C/C(=O)OCCN(CCOC(=O)/C=C/C(=O)O)C(=O)/C=C/C(=O)O [ligand 1-4],calcium chelation value,[1]; [17],9
O=C(O)CCC(=O)OCCN(CCOC(=O)CCC(=O)O)C(=O)CCC(=O)O [ligand 2-5],calcium chelation value,[1]; [19],45
O=C(O)/C=C/C(=O)OCCN(CCOC(=O)/C=C/C(=O)O)C(=O)/C=C/C(=O)O [ligand 1-3],calcium chelation value,[1]; [17],13
O=C(O)c1ccccc1C(=O)OCCN(CCOC(=O)c1ccccc1C(=O)O)C(=O)c1ccccc1C(=O)O [ligand 3-2],calcium chelation value,[1]; [18],15
O=C(O)c1ccccc1C(=O)OCCN(CCOC(=O)c1ccccc1C(=O)O)C(=O)c1ccccc1C(=O)O [ligand 3-3],calcium chelation value,[1]; [18],81
O=C(O)/C=C/C(=O)OCCN(CCOC(=O)/C=C/C(=O)O)C(=O)/C=C/C(=O)O [ligand 1-10],calcium chelation value,[1]; [17],62
O=C(O)CCC(=O)OCCN(CCOC(=O)CCC(=O)O)C(=O)CCC(=O)O [ligand 2-7],calcium chelation value,[1]; [19],42
O=C(O)/C=C/C(=O)OCCN(CCOC(=O)/C=C/C(=O)O)C(=O)/C=C/C(=O)O [ligand 1],stability constant,[2]; aluminium (Al^3+),10.7
same,stability constant,[2]; barium (Ba^2+),7.8
same,stability constant,[2]; cadmium (Cd^2+),8.5
same,stability constant,[2]; calcium (Ca^2+),9.3
same,stability constant,[2]; cobolt (Co^2+),10.4
same,stability constant,[2]; copper (Cu2+),12.8
same,stability constant,[2]; iron (Fe^2+),14.8
same,stability constant,[2]; iron (Fe^3+),9.5
same,stability constant,[2]; magnesium (Mg^2+),8.3
same,stability constant,[2]; manganese (Mn^2+),10.4
same,stability constant,[2]; mercury (Hg^2+),7.8
same,stability constant,[2]; nickel (Ni^2+),5.0
same,stability constant,[2]; strontium (Sr^2+),7.7
same,stability constant,[2]; tin (Pb^2+),11.4
same,stability constant,[2]; zinc (Zn^2+),9.0
"CC(C(=O)O)N(CC(=O)O)CC(=O)O (stereo not shown) [MGDA, methylglycinediacetic acid]",stability constant,[6],13.9
same,stability constant,[14],8.1
same,stability constant,[8],8.4
same,stability constant,[16],12.0
same,stability constant,[9],5.8
same,stability constant,[10],7.0
same,stability constant,[11],4.9
same,stability constant,[12],10.9
same,stability constant,[13],16.5
O=C(O)CCC(=O)OCCN(CCOC(=O)CCC(=O)O)C(=O)CCC(=O)O [ligand 2-1],calcium chelation value,[1]; [19],5
O=C(O)/C=C/C(=O)OCCN(CCOC(=O)/C=C/C(=O)O)C(=O)/C=C/C(=O)O [ligand 1-8],calcium chelation value,[1]; [17],58
O=C(O)c1ccccc1C(=O)OCCN(CCOC(=O)c1ccccc1C(=O)O)C(=O)c1ccccc1C(=O)O [ligand 3-6],calcium chelation value,[1]; [18],88
O=C(O)CCC(=O)OCCN(CCOC(=O)CCC(=O)O)C(=O)CCC(=O)O [ligand 2-3],calcium chelation value,[1]; [19],55
O=C(O)/C=C/C(=O)OCCN(CCOC(=O)/C=C/C(=O)O)C(=O)/C=C/C(=O)O [ligand 1-9],calcium chelation value,[1]; [17],83
"O=C(O)C[C@H](NCCN[C@@H](CC(=O)O)C(=O)O)C(=O)O [EDDS, ethylene diamine-N,N-disuccinic acid]",stability constant,[4],12.7
same,stability constant,[5],16.4
same,stability constant,[6],18.4
same,stability constant,[15],13.6
same,stability constant,[16],16.7
same,stability constant,[9],6.0
same,stability constant,[10],4.6
same,stability constant,[11],3.0
same,stability constant,[12],13.4
same,stability constant,[13],22.0
O=C(O)c1ccccc1C(=O)OCCN(CCOC(=O)c1ccccc1C(=O)O)C(=O)c1ccccc1C(=O)O [ligand 3-7],calcium chelation value,[1]; [18],76
